The values below come from patent US11365188B2, “JAK inhibitors” (priority 2018, dated 2022).

For this assay, the target named is JAK1 (Homo sapiens, UniProt P23458). As to the kind of experiment: JAK Kinase Assay (JAK1, Caliper EZ Reader, fluoresceinated peptide). In kind it is biochemical. Conditions: ATP 76.5 μM; JAK1 10 nM; 120 minutes at room temperature; read-out: JAK1 inhibition. How it is done: JAK Kinase Assay 384-well plates in the left foot butoxy measured progress. The final assay volume was 25 μL, 250 nL 100× compounds, 10 μL enzyme mix and 15 μL substrate mix (fluoresceinated peptide and ATP) in assay buffer (20 mM HEPES (pH 7.5), 10 mM MgCl2, […], 0.5 mM EGTA and 2 mM DTT) prepared as test compound. By mixing the JAK1 with substrates and test compounds to start the reaction. There action mixture was incubated for 120 minutes at room temperature, then added 30 μL stop buffer for each sample to terminate the reaction with 50 mM EDTA. After termination of the kinase reaction, the proportion of phosphorylated product was determined as a fraction of total peptide substrate using Caliper EZ Reader II. Inhibition data were calculated by comparison with 100% of the reaction mixture without enzyme inhibition and vehicle-only reaction mixture billion % inhibition compared. The final concentration of reagents in the assays is: ATP, 76.5 μM; JAK1 fluorescent peptide (5-FAM-EEPLYWSFPAKKK-CONH2), 3 μM; JAK1, 10 nM, and DMSO, 1%. Dose response curve were generated to determine the concentration required for IC50 of JAK activity.
Chain of JAK1 (P23458 whole entry, species assumed): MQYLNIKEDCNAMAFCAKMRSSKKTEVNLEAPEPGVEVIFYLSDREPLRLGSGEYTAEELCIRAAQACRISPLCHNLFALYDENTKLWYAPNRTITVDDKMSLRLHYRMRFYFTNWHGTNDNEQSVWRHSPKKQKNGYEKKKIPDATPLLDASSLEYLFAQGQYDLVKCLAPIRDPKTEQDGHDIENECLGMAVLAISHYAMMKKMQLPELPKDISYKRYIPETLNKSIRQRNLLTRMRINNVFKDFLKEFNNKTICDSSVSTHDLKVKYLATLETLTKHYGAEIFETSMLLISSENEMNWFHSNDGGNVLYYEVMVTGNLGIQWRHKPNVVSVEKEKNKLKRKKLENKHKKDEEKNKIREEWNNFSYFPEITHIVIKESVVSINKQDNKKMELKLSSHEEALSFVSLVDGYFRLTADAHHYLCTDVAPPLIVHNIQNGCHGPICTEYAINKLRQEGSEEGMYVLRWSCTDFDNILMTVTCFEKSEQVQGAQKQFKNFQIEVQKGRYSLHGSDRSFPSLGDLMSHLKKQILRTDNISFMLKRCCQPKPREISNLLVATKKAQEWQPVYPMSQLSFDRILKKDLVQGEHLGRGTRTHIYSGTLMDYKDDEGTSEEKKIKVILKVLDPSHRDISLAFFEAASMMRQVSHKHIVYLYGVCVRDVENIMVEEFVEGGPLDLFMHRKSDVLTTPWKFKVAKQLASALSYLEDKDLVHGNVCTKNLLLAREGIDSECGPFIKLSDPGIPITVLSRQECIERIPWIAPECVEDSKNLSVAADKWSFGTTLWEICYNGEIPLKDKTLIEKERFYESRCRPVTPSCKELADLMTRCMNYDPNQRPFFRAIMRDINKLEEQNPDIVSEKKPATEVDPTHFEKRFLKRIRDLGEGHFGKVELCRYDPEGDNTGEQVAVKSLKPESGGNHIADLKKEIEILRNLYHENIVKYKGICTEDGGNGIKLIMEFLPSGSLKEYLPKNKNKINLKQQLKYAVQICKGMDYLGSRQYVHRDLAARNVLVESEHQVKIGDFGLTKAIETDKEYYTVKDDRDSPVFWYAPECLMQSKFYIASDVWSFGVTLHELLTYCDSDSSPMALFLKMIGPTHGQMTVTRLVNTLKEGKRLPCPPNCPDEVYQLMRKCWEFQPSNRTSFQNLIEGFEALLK
Consider `CN(c1ncnc2[nH]ccc12)C1CC2(C1)CN(C(=O)c1cc(F)c(C#N)cc1F)C2` [Compound 51, 2,5-difluoro-4-(6-(methyl(7H-pyrrolo[2,3-d]pyrimidin-4-yl)amino)-2-azaspiro[3.3]heptane-2-carbonyl)benzonitrile], for which the IC50 fell in the range of 10 to 100 nM.
On to `CN(c1ncnc2[nH]ccc12)C1CC2(C1)CN(C(=O)c1cc(F)c(C#N)c(F)c1)C2` [Compound 52, 2,6-difluoro-4-(6-(methyl(7H-pyrrolo[2,3-d]pyrimidin-4-yl)amino)-2-azaspiro[3.3]heptane-2-carbonyl)benzonitrile], for which the IC50 lay within 10 to 100 nM.
For `Cc1cc(C(=O)N2CC3(CC(N(C)c4ncnc5[nH]ccc45)C3)C2)c(F)cc1C#N` [Compound 54, 5-fluoro-2-methyl-4-(6-(methyl(7H-pyrrolo[2,3-d]pyrimidin-4-yl)amino)-2-azaspiro[3.3]heptane-2-carbonyl)benzonitrile], the IC50 lay in the range of 10 to 100 nM.
Consider `CN(c1ncnc2[nH]ccc12)C1CC2(C1)CN(C(=O)c1cccc(F)c1F)C2` [Compound 55, (2,3-difluorophenyl)(6-(methyl(7H-pyrrolo[2,3-d]pyrimidin-4-yl)amino)-2-azaspiro[3.3]heptan-2-yl)methanone], for which the IC50 fell in the range of 10 to 100 nM.
Under `CN(c1ncnc2[nH]ccc12)C1CC2(C1)CN(C(=O)c1c(F)cc(C#N)cc1F)C2` [Compound 56, 3,5-difluoro-4-(6-(methyl(7H-pyrrolo[2,3-d]pyrimidin-4-yl)amino)-2-azaspiro[3.3]heptane-2-carbonyl)benzonitrile] stands at most 10 nM; under `CN(c1ncnc2[nH]ccc12)C1CC2(C1)CN(C(=O)c1ccc(F)c(C#N)c1)C2` [Compound 57, 2-Fluoro-5-{6-[methyl-(7H-pyrrolo[2,3-d]pyrimidin-4-yl)-amino]-2-aza-spiro[3.3]heptane-2-carbonyl}-benzonitrile], at most 10 nM.
Consider `CN(c1ncnc2[nH]ccc12)C1CC2(C1)CN(C(=O)c1cc(F)cc(C#N)c1)C2` [Compound 58, 3-Fluoro-5-{6-[methyl-(7H-pyrrolo[2,3-d]pyrimidin-4-yl)-amino]-2-aza-spiro[3.3]heptane-2-carbonyl}-benzonitrile], for which the IC50 was at most 10 nM.
As to `CN(c1ncnc2[nH]ccc12)C1CC2(C1)CN(C(=O)c1ccc(C#N)c(Cl)c1Cl)C2` [Compound 60, 2,3-Dichloro-4-{6-[methyl-(7H-pyrrolo[2,3-d]pyrimidin-4-yl)-amino]-2-aza-spiro[3.3]heptane-2-carbonyl}-benzonitrile], the IC50 is at most 10 nM.
For `CN(c1ncnc2[nH]ccc12)C1CC2(C1)CN(C(=O)c1ccc(F)c(C#N)c1F)C2` [Compound 61, 2,6-Difluoro-3-{6-[methyl-(7H-pyrrolo[2,3-d]pyrimidin-4-yl)-amino]-2-aza-spiro[3.3]heptane-2-carbonyl}-benzonitrile], the IC50 is at most 10 nM.
`CN(c1ncnc2[nH]ccc12)C1CC2(C1)CN(C(=O)c1cc(F)c(F)c(C#N)c1)C2` [Compound 62, 2,3-Difluoro-5-{6-[methyl-(7H-pyrrolo[2,3-d]pyrimidin-4-yl)-amino]-2-aza-spiro[3.3]heptane-2-carbonyl}-benzonitrile]: the IC50 lay within 10 to 100 nM.
`CN(c1ncnc2[nH]ccc12)C1CC2(C1)CN(C(=O)c1cc(C#N)cc(F)c1F)C2` [Compound 63, 3,4-Difluoro-5-{6-[methyl-(7H-pyrrolo[2,3-d]pyrimidin-4-yl)-amino]-2-aza-spiro[3.3]heptane-2-carbonyl}-benzonitrile]: the IC50 was at most 10 nM.
In the case of `[2H]C([2H])([2H])N(c1ncnc2[nH]ccc12)C1CC2(C1)CN(C(=O)c1ccc(C#C)c(F)c1)C2` [Compound 64, (4-Ethynyl-3-fluoro-phenyl)-{6-[(methyl-d3)-(7H-pyrrolo[2,3-d]pyrimidin-4-yl)-amino]-2-aza-spiro[3.3]hept-2-yl}-methanone], the IC50 is at most 10 nM.
Consider `[2H]C([2H])([2H])N(c1ncnc2[nH]ccc12)C1CC2(C1)CN(C(=O)c1ccc(C#N)c(F)c1)C2` [Compound 65], for which the IC50 is 10 to 100 nM.
As for `[2H]C([2H])([2H])N(c1ncnc2[nH]ccc12)C1CC2(C1)CN(C(=O)c1ccc(C#CC)c(F)c1)C2` [Compound 66], the IC50 is at most 10 nM.
Consider `[2H]C([2H])([2H])N(c1ncnc2[nH]ccc12)C1CC2(C1)CN(C(=O)c1ccc(C#N)c(F)c1F)C2` [Compound 67, 2,3-Difluoro-4-{6-[(methyl-d3)-(7H-pyrrolo[2,3-d]pyrimidin-4-yl)-amino]-2-aza-spiro[3.3]heptane-2-carbonyl}-benzonitrile], for which the IC50 was at most 10 nM.
The value for `COc1nsc(NC(=O)N2CC3(CC(N(C)c4ncnc5[nH]ccc45)C3)C2)n1` [Compound 70, N-(3-methoxy-1,2,4-thiadiazol-5-yl)-6-(methyl(7H-pyrrolo[2,3-d]pyrimidin-4-yl)amino)-2-azaspiro[3.3]heptane-2-carboxamide] was at most 10 nM; that for `CN(c1ncnc2[nH]ccc12)C1CC2(C1)CN(C(=O)c1ccc(S(N)(=O)=O)cc1)C2` [Compound 71, 4-(6-(methyl(7H-pyrrolo[2,3-d]pyrimidin-4-yl)amino)-2-azaspiro[3.3]heptane-2-carbonyl)benzenesulfonamide] was at most 10 nM.
The value for `COCC(=O)N1CCC2(CCC(N(C)c3ncnc4[nH]ccc34)CC2)CC1` [Compound 72, 2-methoxy-1-(9-(methyl(7H-pyrrolo[2,3-d]pyrimidin-4-yl)amino)-3-azaspiro[5.5]undecan-3-yl)ethan-1-one] was 10 to 100 nM; that for `COc1nsc(NC(=O)N2CCC3(CCC(N(C)c4ncnc5[nH]ccc45)CC3)CC2)n1` [Compound 74, N-(3-methoxy-1,2,4-thiadiazol-5-yl)-9-(methyl(7H-pyrrolo[2,3-d]pyrimidin-4-yl)amino)-3-azaspiro[5.5]undecane-3-carboxamide] was at most 10 nM; that for `CN(c1ncnc2[nH]ccc12)C1CCC2(CC1)CCN(C(=O)OC(C)(C)C)CC2` [Compound 106, tert-butyl 9-(methyl(7H-pyrrolo[2,3-d]pyrimidin-4-yl)amino)-3-azaspiro[5.5]undecane-3-carboxylate] was 1000 to 10000 nM.
Regarding `CN(c1ncnc2[nH]ccc12)C1CCC2(CC1)CCN(C(=O)COc1ccccc1)CC2` [Compound 107, 1-(9-(methyl(7H-pyrrolo[2,3-d]pyrimidin-4-yl)amino)-3-azaspiro[5.5]undecan-3-yl)-2-phenoxyethan-1-one], the IC50 was at most 10 nM.
Under `CN(c1ncnc2[nH]ccc12)C1CCC2(CC1)CCN(C(=O)OCC(F)(F)F)CC2` [Compound 108, 2,2,2-trifluoroethyl 9-(methyl(7H-pyrrolo[2,3-d]pyrimidin-4-yl)amino)-3-azaspiro[5.5]undecane-3-carboxylate] stands 100 to 1000 nM; under `CN(c1ncnc2[nH]ccc12)C1CCC2(CC1)CCN(C(=O)NCC(F)(F)F)CC2` [Compound 109, 9-(methyl(7H-pyrrolo[2,3-d]pyrimidin-4-yl)amino)-N-(2,2,2-trifluoroethyl)-3-azaspiro[5.5]undecane-3-carboxamide], 10 to 100 nM.
Consider `CNC(=O)N1CCC2(CCC(N(C)c3ncnc4[nH]ccc34)CC2)CC1` [Compound 110, N-methyl-9-(methyl(7H-pyrrolo[2,3-d]pyrimidin-4-yl)amino)-3-azaspiro[5.5]undecane-3-carboxamide], for which the IC50 lay in the range of 10 to 100 nM.
